For one data set, the system named is HEK293. The data set is described as follows: Cytotoxicity against HEK293 cells assessed as cell death at 10 uM after 48 hrs by MTT assay relative to control. The data set is classed as cell-based. The conditions noted are these: human, hek293, 48 h. In general terms: Formazan colour is commonly taken as a measure of viable cells.
In the next data set the test system is MDA-MB-231. The data set is described as follows: Cytotoxicity against human MDA-MB-231 cells assessed as cell death at 10 uM after 48 hrs by MTT assay relative to control. Type of data set: functional.
For a further data set, the system named is A549. Put plainly: Cytotoxicity against human A549 cells assessed as cell death at 10 uM after 48 hrs by MTT assay relative to control. Type of data set: functional.
In data set [1] the target is T1, DNA ligase 1 (Homo sapiens, UniProt P18858). The data set is described as follows: Residual activity of human DNA ligase 1 expressed in Escherichia coli BL21(DE3)RP cells assessed as DNA ligation at 100 uM using fluorescently labelled ds nicked DNA as substrate after 30 mins by urea gel based imaging method relative to control.
T1 sequence (P18858 whole entry): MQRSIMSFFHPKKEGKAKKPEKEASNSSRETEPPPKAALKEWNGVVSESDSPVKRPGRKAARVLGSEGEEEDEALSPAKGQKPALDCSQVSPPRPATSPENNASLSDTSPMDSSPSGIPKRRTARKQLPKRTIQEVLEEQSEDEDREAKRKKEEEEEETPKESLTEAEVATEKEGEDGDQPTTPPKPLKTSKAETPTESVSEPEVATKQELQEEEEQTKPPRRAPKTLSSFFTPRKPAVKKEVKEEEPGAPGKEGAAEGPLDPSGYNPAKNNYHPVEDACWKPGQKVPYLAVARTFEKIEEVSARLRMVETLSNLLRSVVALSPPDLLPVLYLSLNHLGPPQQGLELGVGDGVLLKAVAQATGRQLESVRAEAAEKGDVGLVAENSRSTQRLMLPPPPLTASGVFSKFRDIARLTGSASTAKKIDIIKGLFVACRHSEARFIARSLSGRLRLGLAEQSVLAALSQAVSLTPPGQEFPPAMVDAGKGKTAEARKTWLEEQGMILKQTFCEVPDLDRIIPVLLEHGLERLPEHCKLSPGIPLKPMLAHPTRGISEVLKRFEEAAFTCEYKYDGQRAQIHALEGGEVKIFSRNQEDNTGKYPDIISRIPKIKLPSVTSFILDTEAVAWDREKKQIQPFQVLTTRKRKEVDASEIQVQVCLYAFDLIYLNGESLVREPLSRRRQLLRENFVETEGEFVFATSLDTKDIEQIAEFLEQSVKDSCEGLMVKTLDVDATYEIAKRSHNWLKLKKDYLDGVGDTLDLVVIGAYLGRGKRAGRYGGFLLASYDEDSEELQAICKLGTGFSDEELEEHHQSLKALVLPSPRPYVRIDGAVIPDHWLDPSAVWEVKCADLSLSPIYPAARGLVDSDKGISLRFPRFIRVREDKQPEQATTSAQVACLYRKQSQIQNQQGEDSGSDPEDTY
Data set [2] has as its target T1, DNA ligase 1. The data set is described as follows: Inhibition of human DNA ligase 1 expressed in Escherichia coli BL21(DE3)RP cells assessed as reduction in fluorescently labelled ds nicked DNA substrate ligation at 100 uM after 30 mins by urea gel based imaging method relative to control.
The subject of a further data set is HCT-116. The data set is described as follows: Cytotoxicity against human HCT116 cells assessed as cell death at 10 uM after 48 hrs by MTT assay relative to control. The data set is classed as functional.
The test system of data set [3] is HepG2. Put plainly: Cytotoxicity against human HepG2 cells assessed as cell death at 10 uM after 48 hrs by MTT assay relative to control. The data set is classed as functional.
Another data set deals with DLD-1. Put plainly: Cytotoxicity against human DLD1 cells assessed as cell death at 10 uM after 48 hrs by MTT assay relative to control. Type of data set: functional.
In data set [4] the test system is HepG2. Put plainly: Induction of cell death in human HepG2 cells at 0.625 uM after 48 hrs by MTT assay. The data set is classed as functional, cell-based.
A short description of data set [5]: Retention time of the compound by LC-MS/MS analysis. Type of data set: physicochemical.

Activity calls are given as the source filed them. No cut-off for these calls is given here.

On to `CCOC(=O)C1=C(C)NC(=O)NC1c1cc(/C=N/NC(=S)NC)c(O)c(C(C)(C)C)c1` (stereo unspecified), for which the Activity in the data set with HEK293 came to 24.6%; with MDA-MB-231, 29.7%; in the data set with A549, 27.3%; in the data set on HCT-116, 22.5%; in the data set with HepG2 [3], 23.7%; in the data set with DLD-1, 34.1%. Besides, the ligation on DNA ligase 1 [1] came to 19.2%. Besides, the inhibition at DNA ligase 1 [2] is 80.8%.
As to `CCOC(=O)C1=C(C)NC(=O)NC1c1cc(C)c(O)c(/C=N/NC(N)=S)c1` (stereo unspecified), the Activity with HEK293 is on record as 6.7%; in the data set with MDA-MB-231, 10.7%; in the data set on A549, 4.7%; in the data set with HCT-116, 1.3%; in the data set on HepG2 [3], 23.3%; with DLD-1 it was 6.2%. For the same compound, at DNA ligase 1 [1], the ligation was found to be 15.9%. The inhibition at DNA ligase 1 [2] came to 84.1%.
Regarding `CCOC(=O)C1=C(C)NC(=O)NC1c1cc(/C=N/NC(=O)Nc2ccc(Br)cc2)c(O)c(C(C)(C)C)c1` (stereo unspecified), the Activity in the data set on HEK293 stood at 35.3%; in the data set on MDA-MB-231, 44.8%; in the data set on A549, 45.3%; in the data set with HCT-116 it was 57.2%; in the data set on HepG2 [3], 65.3%; in the data set on DLD-1, 60.2%. Besides, the ligation on DNA ligase 1 [1] is 16%. For the same compound, the inhibition on DNA ligase 1 [2] amounted to 84%.
As for `CCOC(=O)C1=C(C)NC(=O)NC1c1cc(C=O)c(O)c(C(C)(C)C)c1` (stereo unspecified), the Activity is 10.7% in the data set on HEK293; 20.7% with MDA-MB-231; 25.4% in the data set with A549; 1.8% in the data set with HCT-116; 11.4% in the data set with HepG2 [3]; 8.1% in the data set with DLD-1. Moreover, at DNA ligase 1 [1], the ligation was found to be 26.4%. Further, the inhibition on DNA ligase 1 [2] is 73.6%.
For `CCOC(=O)C1=C(C)NC(=O)NC1c1cc(/C=N/NC(N)=S)c(O)c(C(C)(C)C)c1` (stereo unspecified), the Activity in the data set with HEK293 stood at 17%; in the data set with MDA-MB-231 it was 21.1%; in the data set with A549, 17%; in the data set with HCT-116, 7.8%; with HepG2 [3], 11.1%; with DLD-1, 5.5%. The ligation on DNA ligase 1 [1] amounted to 19.6%. For the same compound, the inhibition on DNA ligase 1 [2] worked out at 80.4%.
On to `CCOC(=O)C1=C(C)NC(=O)NC1c1cc(C)c(O)c(/C=N/NC(=S)NC)c1` (stereo unspecified), for which the Activity in the data set on HEK293 is recorded as 22.7%; with MDA-MB-231, 31%; in the data set on A549 it was 14%; in the data set on HCT-116 it was 17.7%; in the data set with HepG2 [3], 33.1%; with DLD-1, 18.1%. Moreover, at DNA ligase 1 [1], the ligation was found to be 19.6%. Besides, at DNA ligase 1 [2], the inhibition was determined as 80.4%.
`CCOC(=O)C1=C(C)NC(=O)NC1c1cc(/C=N/NC(=O)Nc2ccc(F)cc2)c(O)c(C(C)(C)C)c1` (stereo unspecified): the Activity in the data set with HEK293 amounted to 46.8%; with MDA-MB-231 it was 43.7%; in the data set on A549, 39.3%; in the data set on HCT-116 it was 17.5%; in the data set on HepG2 [3] it was 37.1%; in the data set on DLD-1 it was 19.1%. In addition, the ligation at DNA ligase 1 [1] was 15.3%. On DNA ligase 1 [2], the inhibition worked out at 84.7%.
Take `COc1cccc2c1C(=O)c1c(O)c3c(c(O)c1C2=O)C[C@@](O)(C(=O)CO)C[C@@H]3O[C@H]1C[C@H](N)[C@H](O)[C@H](C)O1`: the result in the data set with HepG2 [4] was Active.
As for `CCOC(=O)C1=C(C)NC(=S)NC1c1cc(/C=N/NC(=O)Nc2ccccc2)c(O)c(C(C)(C)C)c1` (stereo unspecified), the Activity in the data set with HEK293 turned out to be 53.3%; in the data set with MDA-MB-231 it was 7%; with A549 it was 26.8%; with HCT-116 it was 17.9%; in the data set with HepG2 [3], 26%; in the data set on DLD-1, 17.6%. For the same compound, at DNA ligase 1 [1], the ligation is 19.1%. At DNA ligase 1 [2], the inhibition was 80.9%.
As to `CCOC(=O)C1=C(C)NC(=O)NC1c1cc(C)c(O)c(/C=N/NC(N)=O)c1` (stereo unspecified), the Activity is 15.7% in the data set with HEK293; 13.9% in the data set on MDA-MB-231; 7% in the data set on A549; 4.3% with HCT-116; 9.7% in the data set on HepG2 [3]; -3% in the data set with DLD-1. Further, at DNA ligase 1 [1], the ligation came to 35.7%. Moreover, the inhibition on DNA ligase 1 [2] stood at 64.3%.
As for `CCOC(=O)C1=C(C)NC(=S)NC1c1cc(/C=N/NC(=S)Nc2ccc(C)cc2)c(O)c(C(C)(C)C)c1` (stereo unspecified), the Activity turned out to be 40.2% in the data set with HEK293; 3.3% in the data set with MDA-MB-231; 9.3% in the data set on A549; 50.5% with HCT-116; 23.5% with HepG2 [3]; 45.7% with DLD-1. Further, the ligation on DNA ligase 1 [1] is 31.1%. The inhibition at DNA ligase 1 [2] was 68.9%.
With `CCOC(=O)C1=C(C)NC(=S)NC1c1cc(/C=N/NC(=O)Nc2ccc(Cl)cc2)c(O)c(C(C)(C)C)c1` (stereo unspecified), the Activity in the data set with HEK293 is reported as 65.7%; with MDA-MB-231 it was 13.8%; with A549, 54%; with HCT-116, 63.3%; in the data set on HepG2 [3], 81.3%; in the data set with DLD-1, 17.1%. Also, at DNA ligase 1 [1], the ligation amounted to 22.9%. Besides, the inhibition at DNA ligase 1 [2] worked out at 77.1%.
Consider `CCOC(=O)C1=C(C)NC(=S)NC1c1cc(/C=N/NC(=S)Nc2ccccc2)c(O)c(C(C)(C)C)c1` (stereo unspecified), for which the Activity was determined as 54.1% in the data set on HEK293; 26.1% in the data set with MDA-MB-231; 29.6% in the data set with A549; 49.9% in the data set on HCT-116; 26.5% in the data set on HepG2 [3]; 67.6% in the data set on DLD-1. For the same compound, the ligation at DNA ligase 1 [1] was 33.2%. At DNA ligase 1 [2], the inhibition came to 66.8%.
Consider `CCOC(=O)C1=C(C)NC(=O)NC1c1cc(/C=N/NC(N)=O)c(O)c(C(C)(C)C)c1` (stereo unspecified), for which the Activity with HEK293 stood at 14%; in the data set on MDA-MB-231, 18.4%; with A549, 9.1%; with HCT-116, 2.6%; with HepG2 [3] it was 0.7%; with DLD-1, 19.9%. Besides, on DNA ligase 1 [1], the ligation worked out at 22.4%. Moreover, on DNA ligase 1 [2], the inhibition is 77.6%.
On to `CCOC(=O)C1=C(C)NC(=S)NC1c1cc(C)c(O)c(/C=N/NC(=O)Nc2ccc(Cl)cc2)c1` (stereo unspecified), for which the Activity in the data set with HEK293 was 42.6%; in the data set on MDA-MB-231 it was 20.2%; in the data set with A549, 12.8%; in the data set on HCT-116, 50.8%; with HepG2 [3] it was 22.8%; with DLD-1, 1%. Besides, the ligation on DNA ligase 1 [1] was 13.4%. In addition, the inhibition at DNA ligase 1 [2] was 86.7%.
In the case of `CCOC(=O)C1=C(C)NC(=O)NC1c1cc(/C=N/NC(=S)Nc2ccc(Cl)cc2)c(O)c(C(C)(C)C)c1` (stereo unspecified), the Activity in the data set on HEK293 came out at 53.1%; in the data set with MDA-MB-231, 83.6%; in the data set on A549, 53.3%; in the data set on HCT-116, 82.5%; in the data set with HepG2 [3] it was 78.9%; in the data set with DLD-1, 43%. Also, the ligation on DNA ligase 1 [1] was 19.1%. The inhibition on DNA ligase 1 [2] came out at 80.9%.
Consider `CCOC(=O)C1=C(C)NC(=S)NC1c1cc(/C=N/NC(=S)Nc2ccc(Cl)cc2)c(O)c(C(C)(C)C)c1` (stereo unspecified), for which the Activity was 52.7% with HEK293; 17.3% in the data set with MDA-MB-231; 24.5% in the data set with A549; 57.8% with HCT-116; 28.9% in the data set with HepG2 [3]; 15.5% with DLD-1. Further, the ligation on DNA ligase 1 [1] is 20.6%. Also, the inhibition at DNA ligase 1 [2] came to 79.4%.
As to `CCOC(=O)C1=C(C)NC(=O)NC1c1cc(C)c(O)c(C=O)c1` (stereo unspecified), the Activity in the data set on HEK293 was found to be 9.2%; in the data set on MDA-MB-231, 32.5%; in the data set on A549, 34.7%; with HCT-116 it was 5.7%; in the data set with HepG2 [3], 18.3%; with DLD-1, 14.7%. Also, the ligation on DNA ligase 1 [1] came out at 23.1%. Also, the inhibition on DNA ligase 1 [2] is 76.9%.
Consider `CCOC(=O)C1=C(C)NC(=O)NC1c1cc(/C=N/NC(=S)Nc2ccccc2)c(O)c(C(C)(C)C)c1` (stereo unspecified), for which the Activity in the data set with HEK293 was found to be 48.3%; in the data set with MDA-MB-231 it was 50.4%; in the data set with A549, 48.7%; in the data set on HCT-116, 43.2%; in the data set with HepG2 [3], 43%; in the data set on DLD-1, 30%. Further, on DNA ligase 1 [1], the ligation was 12%. In addition, the inhibition on DNA ligase 1 [2] is 88.1%.
On to `OC(Cn1cncn1)(Cn1cncn1)c1ccc(F)cc1F` [FLUCONAZOLE], for which the Retention_time in data set [5] was 2.08 min.

A word on the inhibition: it is the share of the control response that was lost under treatment.

These data come from ChEMBL document CHEMBL4190183 (Medchemcomm, 2016).
